Holding throughout (format): cell-based, human
The test system of test [1] is MRC5 cells. Put plainly: FGF-2-mediated secretion of VEGF and HGF with signal transduction inhibitors or neutralizing antibody, ELISA. Particulars: MRC5, 10 ng/ml FGF-2, 72 hours; rapamycin 100 ng/ml, U0126 10 μmol/L, Ras-inhibitory peptide 50 μmol/L. As to the method: (A) Effect of various inhibitors of intracellular signal transduction pathways upon the secretion of VEGF and HGF in MRC5 cells. After 48 hours of preincubation in the presence of 1% FBS, cells were stimulated with 10 ng/ml of human recombinant FGF-2 in the presence or absence of various inhibitors. After 72 hours, the medium was subjected to ELISA. n=3 in each group. *P<0.01.
(C) Increases in FGF-2-mediated VEGF secretion completely depend on PDGFRα. After 48 hours of preincubation in the presence of 1% FBS, MRC5 cells were stimulated with 10 ng/ml of recombinant human FGF-2 in the presence or absence of an anti-PDGFRα neutralizing antibody. After 72 hours, the medium was subjected to ELISA. Similar results were obtained for the expression of HGF (data not shown). *P<0.01.
HSMC (J. Cell Biol., 50: 172-86 (1971)), MRC-5 (ATCC CCL-171), SAS (J. Biol. Chem., 270 (41): 24321-69 (1995)), MH134 (J. Natl. Cancer Inst., 17: 1-21 (1956)), QG56 (Int. J. Cancer, 35 (6): 808-12 (1985)), TF (Cancer, 69 (10): 2589-97 (1992)), KN (Cancer, 69 (10): 2589-97 (1992)), EBC-1 (Am. J. Pathol., 142 (2): 425-31 (1993)), PC9 (Int. J. Cancer, 15 (4): 449-55 (1985)), and COS7 Cells (ATCC CRL-1651) were purchased from American Type Culture Collection (ATCC). As mentioned previously, the intracellular signal inhibitors below were each used at the following concentrations for HSMC and MRC5 cells (Onimaru M et al., Circ Res. 91: 723-730 (2002)): Ras, Ras-inhibitory peptide (50 μmol/L, Alexis Japan, Tokyo, Japan); p70S6K, p70S6K inhibitor rapamycin (100 ng/ml, Sigma-Aldrich Japan, Tokyo, Japan); PKC, PKC inhibitor bisindolylmaleimide (100 nmol/L, Sigma); PI3K, PI3K-inhibitor wortmannin (120 nmol/L, Sigma); MEK inhibitor U0126 (10 μmol/L, Promega K.K., Tokyo, Japan); PKA, PKA-inhibitory peptide (1 μmol/L, Calbiochem, San Diego, Calif.); and […], NF-κB inhibitor ALLN (5 μmol/L, Roche Diagnostics, Tokyo, Japan).
(§1) As mentioned previously (Masaki I et al., Circ Res. 90: 966-973 (2002); Onimaru M et al., Circ Res. 91: 723-730 (2002)), the protein contents of the mouse limb muscle, tumor, and culture medium were determined using Quantikine Immunoassay systems for mice (both the 164 and 220 amino acid residue forms are recognized) and human VEGF-A, human FGF-2 (available to both human and mouse), human HGF (R&D Systems Inc., Minneapolis, Minn.), and rat HGF (available to mouse HGF; Institute of Immunology Inc., Tokyo, Japan), according to the manufacturer's instructions.

Test [2] concerns MRC5 cells. Put plainly: Northern blot of receptor mRNA after growth factor stimulation. The protocol:
(§2) (B) A time course of FGF-2-mediated expression of PDGFRα mRNA in MRC5 cells and HSMCs was analyzed by Northern blotting. After 48 hours of preincubation under serum-free conditions, each of the cell lines was stimulated with FGF-2. Cells were harvested at the time indicated in the figure and then subjected to Northern blot analysis. Bands were visualized and subjected to densitometric analysis using a photoimager. The experience was carried out in duplicate and similar results were obtained.
(§3) Total cellular RNA, isolated using the ISOGEN system (Wako Pure Chemicals, Osaka, Japan), was electrophoresed and transferred onto a nylon membrane. The membranes were hybridized overnight at 60° C. with random-primed [α-^32P]dCTP-labeled probes. The bands were visualized and subjected to densitometry using a photoimager.
(§4) To assess the role of the PDGF-AA signal in the angiogenic response of host vasculature, the FGF-2-mediated induction of VEGF and HGF in human mesenchymal cells (MRC5 and HSMC) cultured under serum-free conditions was investigated. […] In clinical application such as ischemia treatments, angiogenesis might also be induced more effectively by administering both FGF-2 and PDGF-AA, rather than either one alone.

Test [3] deals with HSMC. The description is as above. As to the method:
as §2, §3, §4

Test [4] deals with MRC5 cells. Put plainly: Northern blot time course of FGF-2-mediated VEGF mRNA expression. The conditions noted are these: MRC5, 10 ng/ml FGF-2, Northern blot. As to the method: (B) A p70S6K inhibitor, Rapamycin (RAPA) stops the later phase of FGF-2-mediated VEGF mRNA expression in MRC5 cells. After 48 hours of preincubation in the presence of 1% FBS, cells were stimulated with 10 ng/ml of recombinant human FGF-2. Cells were harvested at the time indicated in the figure and then subjected to Northern blot analysis. The bands were visualized and subjected to densitometric analysis using a photoimager.
as §3

Test [5] has as its system MRC5 cells. Put plainly: VEGF secretion after stimulation with FGF-2 and/or PDGF-AA, ELISA of culture medium. The conditions noted are these: MRC5, serum-free, 72 hours. As to the method: (§5) (A) Recombinant FGF-2 and PDGF-AA work together to increase VEGF secretion from fibroblasts (MRC5) and vascular smooth muscle cells (HSMCs). After 48 hours of preincubation in serum-free conditions, each of the cell lines was stimulated with FGF-2 and/or PDGF-AA. After 72 hours, the cultured medium was subjected to ELISA. n3 in each group. *P<0.01. #P<0.05
as §1, §4
Background: In an ELISA, binding on a coated surface is turned into a signal by an enzyme label.

For test [6], the system named is HSMC. The description is as above. Particulars: serum-free, 72 hours. As to the method:
as §5, §1, §4

For the molecule `N#CC(=C(/N)Sc1ccccc1N)/C(C#N)=C(\N)Sc1ccccc1N` [MEK inhibitor, U0126, reference compound], in the test on MRC5 cells [1], the “FGF-2-mediated upregulation of HGF/SF protein” value is reported as “removed these effects” and the “FGF-2-mediated upregulation of VEGF protein” value is listed as “removed these effects”.
As to “FGF-2: human recombinant fibroblast growth factor-2 used to stimulate cells”, the PDGFRα transcription result in the test on MRC5 cells [2] (MRC5, Northern blot) is recorded as “upregulation”. Moreover, the PDGFRα transcription entry in the test with HSMC [3] is “upregulation”. In the test on MRC5 cells [4], the “time course of FGF-2-mediated VEGF expression” value was “biphasic (at three hours and after that) upregulation”. In the test with MRC5 cells [5], the “release of VEGF into the culture medium” value is “stimulated release of VEGF”. In the test with MRC5 cells [1], the “FGF-2-mediated upregulation of HGF/SF protein” value is “upregulated” and the “FGF-2-mediated upregulation of VEGF protein” value is “upregulated”.
Turning to “PDGF-AA: recombinant PDGF-A homodimer used to stimulate cells”, the FGFR1 expression result in the test with MRC5 cells [2] (data not shown) is on record as “did not change”. Also, the “release of VEGF into the culture medium” value in the test on MRC5 cells [5] was “did not”. Also, in the test on HSMC [6], the “level of VEGF in the culture medium” value was “upregulated”.

The values above are taken from patent US20080199438A1, “Methods For Suppressing Tumor Proliferation” (DNAVEC RESEARCH INC., priority 2004, published 2008).
